According to patent publication US8178530B2, “Imidazolopyrazine compounds useful for the treatment of degenerative and inflammatory diseases” (Janssen Pharmaceutica NV, priority 2006, dated 2012):

Tests used:
[1] = target: T1, MAPKAPK5 (Homo sapiens, UniProt Q8IW41); assay: MAPKAP-K5 assay (FlashPlate, 33P-ATP); type: biochemical; conditions: 0.6 μM ATP, 30 minutes at room temperature
T1 construct: 1 mU MAPKAP-K5
T1 sequence (Q8IW41 1-473): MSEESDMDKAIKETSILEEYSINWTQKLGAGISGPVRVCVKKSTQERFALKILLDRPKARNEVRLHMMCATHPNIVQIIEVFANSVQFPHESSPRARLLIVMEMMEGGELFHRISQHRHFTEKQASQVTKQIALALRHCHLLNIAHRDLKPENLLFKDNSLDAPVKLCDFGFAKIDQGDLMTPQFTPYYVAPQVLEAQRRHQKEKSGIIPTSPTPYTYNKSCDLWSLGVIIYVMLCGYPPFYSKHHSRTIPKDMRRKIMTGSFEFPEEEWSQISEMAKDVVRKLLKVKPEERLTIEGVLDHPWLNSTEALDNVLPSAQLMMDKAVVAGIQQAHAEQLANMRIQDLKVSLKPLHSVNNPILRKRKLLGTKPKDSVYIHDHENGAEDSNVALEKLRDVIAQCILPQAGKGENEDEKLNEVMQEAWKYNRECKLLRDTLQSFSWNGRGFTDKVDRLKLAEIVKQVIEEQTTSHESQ
Description: 3 μM MAPKAP-K5 peptide substrate

[2] = tested on: MMP1 expression by SFs; assay: 'MMP assay': MMP1 expression by 'complex trigger' activated synovial fibroblasts (MMP1 ELISA); type: cell-based, human; conditions: Homo sapiens, Fibroblast, RASFs, 48 hrs
Description: A 384-well format ELISA for measurement of MMP1 is developed. Various primary antibodies are tested, as well as various ELISA protocols. The following protocol is developed and validated to measure MMP1 levels in SF supernatant in 384 well plates: white Lumitrac 600 384 well plates (Greiner) are coated with 2 μg/mL anti-MMP1 antibody MAB1346 (Chemicon). The antibody is diluted in buffer 40 (1.21 g Tris base (Sigma), 0.58 g NaCl (Calbiochem) and 5 ml 10% NaN3 (Sigma) in 1 L milliQ water and adjusted to pH 8.5). After overnight incubation at 4° C., plates are washed with PBS (80 g NaCl, 2 g KCl (Sigma), 11.5 g Na2HPO4.7H2O and 2 g KH2PO4 in 10 L milliQ; pH 7.4) and blocked with 100 μL/well Casein buffer (2% Casein (VWR International) in PBS). Next day, casein buffer is removed from ELISA plates and replaced by 50 μL/well EC buffer (4 g casein, 2.13 g Na2HPO4 (Sigma), 2 g bovine albumin (Sigma), 0.69 g NaH2PO4.H2O (Sigma), 0.5 g CHAPS (Roche), 23.3 g NaCl, 4 mL 0.5 M EDTA pH 8 (Invitrogen), 5 mL 10% NaN3 in 1 L milliQ and adjusted to pH 7.0). 0.25 mM DTT (Sigma) is added to the thawed samples plates. After removal of the EC buffer, 20 μL of sample is transferred to the ELISA plates. After overnight incubation at 4° C. plates are washed twice with PBS and once with PBST (PBS with 0.05% Tween-20 (Sigma)) and incubated with 35 μL/well biotinylated anti-MMP1 antibody solution (R&D). This secondary antibody is diluted in buffer C (0.82 g NaH2PO4.H2O, 4.82 g Na2HPO4, 46.6 g NaCl, 20 g bovine albumin and 4 mL 0.5M EDTA pH 8 in 2 L milliQ and adjusted to pH 7.0) at a concentration of 5 μg/mL. After 2 h of incubation at RT, plates are washed as described above and incubated with 50 μL/well streptavidin-HRP conjugate (Biosource). Streptavidin-HRP conjugate is diluted in buffer C at a concentration of 0.25 μg/mL. After 45 min, plates are washed as described above and incubated for 5 min with 50 μL/well BM Chem ELISA Substrate (Roche). Readout is performed on the Luminoscan Ascent Luminometer (Labsystems) with an integration time of 200 msec or with an Envision reader (Perkin Elmer).
The increase of MMP1 expression by SFs upon treatment with cytokines relevant in the field of RA (TNF-α, IL1β and OSM) or a combination thereof is shown in FIG. 2 as white bars. For this experiment, SFs are seeded in 96 well plates, 3,000 cells/well. 24 h later, the medium is changed to M199 medium supplemented with 1% FBS. One day after the medium change, cytokines or combinations thereof are added to the cultures, each cytokine being added to a final concentration of 25 ng/mL. 72 h after cytokine addition, the supernatant is collected and processed in the MMP1 ELISA as described in the protocol given above. In parallel with this experiment, SFs are triggered, using the same protocol, with the supernatant of THP1 cells (2-fold diluted in M199+1% FBS) treated with the same cytokines or combinations of cytokines for 48 h in M199 medium+1% FBS. The induction of the MMP1 expression by SFs triggered with the supernatants of TNF-α-treated THP1 cells is stronger (>4.5 fold induction) as compared to the SFs triggered with recombinant TNF-α alone (3-fold induction) and almost equals the 5-fold induction obtained by a mixture of 3 purified cytokines (TNF-α, IL1βb, OSM). […] As the role of TNF-α in the RA pathogenesis is validated (TNF-α-blockers such as Infliximab and Etanercept show some efficacy in the treatment of RA patients) and the THP-1 cells are representative for monocytes/macrophages present in the joint of RA patients, the TNF-α-based trigger mixture prepared by contacting THP-1 cells with TNF-α will contain factors present in the joints of RA patients and subsequently is relevant to RA. This TNF-α-based complex trigger, further referred to as the ‘complex trigger’, will further be used as basis for the ‘MMP assay’.
Dexamethasone is shown to dose-dependently reduce amounts of MMP1 produced by complex trigger activated SFs. […]

| IC50 [1] [nM] | Structure (SMILES) | EC50 [2] [nM] |
| --- | --- | --- |
| > 1000 | CCN(CC)CCNC(=O)c1ccc(Nc2ncc(-c3cn[nH]c3)n3cc(C)nc23)cc1 [Compound 59] | > 1000 |
| > 1000 | NC(=O)c1ccc(-c2cnc(Nc3ccc(C(=O)NCCO)cc3)c3nccn23)cc1 [Compound 49] | > 1000 |
| 501 to 1000 | O=C(NCCO)c1ccc(Nc2ncc(-c3cn[nH]c3)n3ccnc23)cc1 [Compound 61] | > 1000 |
| 101 to 500 | O=C(NCc1ccc(O)cc1)c1ccc(Nc2ncc(-c3cc[nH]c(=O)c3)n3ccnc23)cc1 [Compound 112] | 101 to 500 |
| > 1000 | CCN(CC)CCNC(=O)c1ccc(Nc2ncc(-c3c(C)n[nH]c3C)n3ccnc23)cc1 [Compound 81] | > 1000 |
| > 1000 | CS(=O)(=O)c1ccc(Nc2ncc(-c3ccc(C(N)=O)cc3)n3ccnc23)cc1 [Compound 97, 4-[8-(4-Methanesulfonyl-phenylamino)-imidazo[1,2-a]pyrazin-5-yl]-benzamide] | > 1000 |
| > 1000 | CCN(CCO)c1ccc(Nc2ncc(-c3ccc(C(N)=O)cc3)n3ccnc23)cc1 [Compound 4] | 101 to 500 |
| > 1000 | CCN(CC)CCNC(=O)c1ccc(Nc2ncc(-c3ccc(CC(=O)O)cc3)n3ccnc23)cc1 [Compound 76] | > 1000 |
| > 1000 | CCN(CC)CCNC(=O)c1ccc(Nc2ncc(-c3ccsc3)n3ccnc23)cc1 [Compound 73] | > 1000 |
| > 1000 | CCN(CC)CCNC(=O)c1ccc(Nc2ncc(-c3ccc(S(C)(=O)=O)cc3)n3ccnc23)cc1 [Compound 79] | > 1000 |
| > 1000 | CCN(CCO)c1ccc(Nc2ncc(-c3ccc(O)cc3)n3ccnc23)cc1 [Compound 5] | 101 to 500 |
| > 1000 | CCN(CC)CCNC(=O)c1ccc(Nc2ncc(-c3cnc(O)nc3O)n3ccnc23)cc1 [Compound 80] | > 1000 |
| > 1000 | CCN(CCO)c1ccc(Nc2ncc(-c3cccc(N)c3)n3ccnc23)cc1 [Compound 7] | > 1000 |

Second part, the molecule before the results:

| Structure (SMILES) | IC50 [1] [nM] | EC50 [2] [nM] |
| --- | --- | --- |
| Cc1cn2c(-c3cn[nH]c3)cnc(Nc3ccc(C(N)=O)cc3)c2n1 [Compound 92] | > 1000 | > 1000 |
| NC(=O)c1c(F)cc(-c2cnc(Nc3ccc(OCCN4CCOCC4)cc3)c3nccn23)cc1F [Compound 216] | 501 to 1000 | > 1000 |
| Cc1n[nH]cc1-c1cnc(Nc2ccc(C3CCN(CC(N)=O)CC3)cc2)c2nccn12 [Compound 225, 2-(4-{4-[5-(3-Methyl-1H-pyrazol-4-yl)imidazo[1,2-a]pyrazin-8-ylamino]phenyl}piperidin-1-yl)acetamide] | 501 to 1000 | > 1000 |
| COc1cccc(Nc2ncc(-c3cn[nH]c3)n3ccnc23)c1 [Compound 16] | > 1000 | > 1000 |
| c1cn2c(-c3nc[nH]n3)cnc(Nc3ccc(N4CCOCC4)cc3)c2n1 [Compound 91] | > 1000 | > 1000 |
| CN1CCN(c2ccc(Nc3ncc(-c4ccc(C(=O)N5CCCC5)cc4)n4ccnc34)cc2)CC1 [Compound 115] | > 1000 | > 1000 |
| NC(=O)c1cc(Nc2ncc(-c3cc(F)c(C(N)=O)c(F)c3)n3ccnc23)ccc1N1CCOCC1 [Compound 175, 4-[8-(3-Carbamoyl-4-morpholin-4-yl-phenylamino)-imidazo[1,2-a]pyrazin-5-yl]-2,6-difluoro-benzamide] | 101 to 500 | 501 to 1000 |
| O=C1NCc2cc(-c3cnc(Nc4cnc(N5CCOCC5)nc4)c4nccn34)ccc21 [Compound 215] | 101 to 500 | > 1000 |
| O=C(O)c1cnc(Nc2ccc(N3CCOCC3)cc2)c2nccn12 [Compound 63] | > 1000 | > 1000 |
| O=C1NCc2cc(-c3cnc(Nc4ccc(N5CCOCC5)nc4)c4nccn34)ccc21 [Compound 214] | 1 to 100 | > 1000 |
| c1cn2c(-c3cn[nH]c3)cnc(Nc3ccc(N4CCOCC4)cn3)c2n1 [Compound 208, N-(5-Morpholinopyridin-2-yl)-5-(1H-pyrazol-4-yl)imidazo[1,2-a]pyrazin-8-amine] | > 1000 | > 1000 |
| Cc1cc(-c2cnc(Nc3ccc(N4CCOCC4)cc3)c3nccn23)cc(=O)[nH]1 [Compound 174, 6-Methyl-4-[8-(4-morpholin-4-ylphenylamino)-imidazo[1,2-a]pyrazin-5-yl]-1H-pyridin-2-one] | > 1000 | 101 to 500 |
| NC(=O)c1cc(-c2cnc(Nc3ccc(C4CCN(CC(F)(F)F)CC4)cc3)c3nccn23)cs1 [Compound 194] | > 1000 | 501 to 1000 |
| CN1CCN(c2ccc(Nc3ncc(-c4cn[nH]c4C(F)(F)F)n4ccnc34)cc2)CC1 [Compound 157, [4-(4-Methyl-piperazin-1-yl)-phenyl]-[5-(3-trifluoromethyl-1H-pyrazol-4-yl)-imidazo[1,2-a]pyrazin-8-yl]-amine] | > 1000 | > 1000 |
| O=C(Cc1ccccc1)Nc1ccc(Nc2ncc(-c3cn[nH]c3)n3ccnc23)cn1 [Compound 200, 2-Phenyl-N-{5-[5-(1H-pyrazol-4-yl)imidazo[1,2-a]pyrazin-8-ylamino]pyridin-2-yl}acetamide] | > 1000 | 101 to 500 |
| FC(F)(F)CN1CCC(c2ccc(Nc3ncc(-c4cn[nH]c4)n4ccnc34)cc2)CC1 [Compound 196] | > 1000 | > 1000 |
| NC(=O)CN1CCC(c2ccc(Nc3ncc(-c4cn[nH]c4)n4ccnc34)cc2)CC1 [Compound 224, 2-(4-{4-[5-(1H-Pyrazol-4-yl)imidazo[1,2-a]pyrazin-8-ylamino]phenyl}piperidin-1-yl)acetamide] | 501 to 1000 | > 1000 |
| CC(C)N1CCN(c2ncc(Nc3ncc(-c4ccc5c(c4)CNC5=O)n4ccnc34)cn2)CC1 [Compound 219] | 101 to 500 | 501 to 1000 |
| NC(=O)c1ccc(Nc2ncc(-c3cn[nH]c3)n3ccnc23)nc1 [Compound 38] | > 1000 | > 1000 |
| CC(C)Oc1ccc(Nc2ncc(-c3ccc(C(N)=O)c(F)c3)n3ccnc23)cc1 [Compound 148] | > 1000 | 501 to 1000 |
| O=C(O)c1ccc(Nc2ncc(-c3cn[nH]c3)n3ccnc23)cc1 [Compound 23] | > 1000 | > 1000 |
| Nc1ccc(Nc2ncc(-c3cn[nH]c3)n3ccnc23)cn1 [Compound 207] | 501 to 1000 | > 1000 |
